Among the data in the supplement of paper PMC12463676, “Small-molecule dissolution of stress granules by redox modulation benefits ALS models” (Nature Chemical Biology, 2025) are thermal stability z-score values, retold here.

Compound in one test: O=[As]([O-])(O)O.[K+] [potassium arsenate]
The test can be described thus: thermal stability z-score vs DMSO; higher = more thermally stabilized by treatment. The following applies: HeLa; arsenate concentration 1 mM. As for the experimental part:
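Cellular thermal proteome profiling in HeLa cells treated with 1 mM arsenate for 1 h (DMSO pretreatment), heated to ten temperatures (37-66.3 °C). Soluble protein was quantified by TMT mass spectrometry relative to DMSO controls; the thermal stability score was transformed to a z-score; mean of n = 3 experiments.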

Compound in another test: NC(=O)CCCCC1CCSS1 [lipoamide]
The test is described as above. Conditions: HeLa, lipoamide concentration 100 µM. As to the method:
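Cellular thermal proteome profiling in HeLa cells. Cells were treated with 100 µM lipoamide for 1 h, with or without 1 mM arsenate for a further 1 h, then heated to ten temperatures (37-66.3 °C), and soluble protein was quantified by TMT mass spectrometry relative to 0.1% DMSO controls. The thermal stability score (sum of log2 fold changes minus the abundance score) was transformed to a z-score; mean of n = 3 experiments.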

Setting [1] is: arsenate co-treatment: 1 mM arsenate 1 h.
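Note: each temperature applied for 3 min, abundance score taken as mean log2 fold change at the two lowest temperatures, z-score obtained by mean subtraction and division by SD.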

Sequence of UniProt Q9BQ61 (Q9BQ61 whole entry): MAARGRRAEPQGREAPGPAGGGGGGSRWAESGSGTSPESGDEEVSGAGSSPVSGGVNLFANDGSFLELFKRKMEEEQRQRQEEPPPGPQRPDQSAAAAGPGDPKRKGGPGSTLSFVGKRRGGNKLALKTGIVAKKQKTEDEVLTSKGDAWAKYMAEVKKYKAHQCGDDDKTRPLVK
Sequence of UniProt Q9NXV2 (Q9NXV2 whole entry): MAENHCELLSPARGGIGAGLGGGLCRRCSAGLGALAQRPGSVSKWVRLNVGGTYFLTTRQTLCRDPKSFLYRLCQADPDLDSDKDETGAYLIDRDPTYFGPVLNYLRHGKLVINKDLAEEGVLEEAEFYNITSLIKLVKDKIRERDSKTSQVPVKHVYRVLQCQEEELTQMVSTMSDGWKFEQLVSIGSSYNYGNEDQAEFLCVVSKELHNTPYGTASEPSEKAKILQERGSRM
Sequence of UniProt Q8N8R7 (Q8N8R7 whole entry): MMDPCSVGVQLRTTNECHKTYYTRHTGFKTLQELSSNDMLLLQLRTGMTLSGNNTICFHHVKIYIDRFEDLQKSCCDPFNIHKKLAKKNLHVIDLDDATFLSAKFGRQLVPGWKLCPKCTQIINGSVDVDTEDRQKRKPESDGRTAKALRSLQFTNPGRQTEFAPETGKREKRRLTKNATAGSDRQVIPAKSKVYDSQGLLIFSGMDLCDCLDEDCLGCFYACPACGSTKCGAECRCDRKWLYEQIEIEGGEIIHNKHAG
Sequence of UniProt O14879 (O14879 whole entry): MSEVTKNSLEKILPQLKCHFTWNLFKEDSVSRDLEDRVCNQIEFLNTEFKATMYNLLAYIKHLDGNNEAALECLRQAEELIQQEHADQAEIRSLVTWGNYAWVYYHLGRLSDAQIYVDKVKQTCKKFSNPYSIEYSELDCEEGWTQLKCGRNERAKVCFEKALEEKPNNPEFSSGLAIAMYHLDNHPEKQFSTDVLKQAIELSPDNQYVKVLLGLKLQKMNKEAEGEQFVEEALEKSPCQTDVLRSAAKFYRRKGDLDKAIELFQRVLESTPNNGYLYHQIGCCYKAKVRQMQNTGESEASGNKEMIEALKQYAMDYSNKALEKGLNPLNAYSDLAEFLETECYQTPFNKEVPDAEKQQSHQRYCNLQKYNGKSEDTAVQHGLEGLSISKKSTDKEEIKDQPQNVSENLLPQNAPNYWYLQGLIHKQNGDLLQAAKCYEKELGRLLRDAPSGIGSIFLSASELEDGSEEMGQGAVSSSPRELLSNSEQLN
Sequence of UniProt Q9Y217 (Q9Y217 whole entry): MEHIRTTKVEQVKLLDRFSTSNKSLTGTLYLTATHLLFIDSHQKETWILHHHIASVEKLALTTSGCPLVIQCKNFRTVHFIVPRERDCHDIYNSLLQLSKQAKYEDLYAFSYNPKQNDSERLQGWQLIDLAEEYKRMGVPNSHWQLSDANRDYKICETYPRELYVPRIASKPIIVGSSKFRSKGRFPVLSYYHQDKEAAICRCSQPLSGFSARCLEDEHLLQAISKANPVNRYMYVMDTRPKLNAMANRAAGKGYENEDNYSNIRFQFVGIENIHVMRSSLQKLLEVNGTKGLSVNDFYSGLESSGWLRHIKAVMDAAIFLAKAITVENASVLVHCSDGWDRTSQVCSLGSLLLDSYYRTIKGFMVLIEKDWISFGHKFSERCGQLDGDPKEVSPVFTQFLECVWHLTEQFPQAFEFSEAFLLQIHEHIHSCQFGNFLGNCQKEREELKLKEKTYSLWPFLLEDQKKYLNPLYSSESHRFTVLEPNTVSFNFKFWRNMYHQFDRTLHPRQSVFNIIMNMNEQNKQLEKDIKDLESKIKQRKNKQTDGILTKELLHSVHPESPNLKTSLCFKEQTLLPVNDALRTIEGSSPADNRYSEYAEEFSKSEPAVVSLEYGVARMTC
Sequence of UniProt Q08623 (Q08623 whole entry): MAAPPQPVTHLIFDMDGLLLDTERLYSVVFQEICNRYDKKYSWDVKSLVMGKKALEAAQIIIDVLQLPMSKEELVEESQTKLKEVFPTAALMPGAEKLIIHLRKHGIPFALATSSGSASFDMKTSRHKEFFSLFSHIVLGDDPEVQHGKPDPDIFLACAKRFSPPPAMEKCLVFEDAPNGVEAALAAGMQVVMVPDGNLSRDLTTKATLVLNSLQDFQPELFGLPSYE
Sequence of UniProt Q8IWB7 (Q8IWB7 whole entry): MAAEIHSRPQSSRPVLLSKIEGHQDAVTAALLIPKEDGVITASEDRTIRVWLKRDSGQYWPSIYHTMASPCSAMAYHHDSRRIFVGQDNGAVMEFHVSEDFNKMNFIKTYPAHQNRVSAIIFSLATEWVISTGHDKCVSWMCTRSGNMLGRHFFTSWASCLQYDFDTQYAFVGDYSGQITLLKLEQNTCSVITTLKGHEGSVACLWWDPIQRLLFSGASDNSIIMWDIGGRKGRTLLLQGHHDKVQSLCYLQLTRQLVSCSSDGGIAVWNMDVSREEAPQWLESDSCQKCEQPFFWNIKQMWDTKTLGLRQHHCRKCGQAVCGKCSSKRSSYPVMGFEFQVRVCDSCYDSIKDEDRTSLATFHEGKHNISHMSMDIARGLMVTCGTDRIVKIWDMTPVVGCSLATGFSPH
Sequence of UniProt P00390 (P00390 whole entry): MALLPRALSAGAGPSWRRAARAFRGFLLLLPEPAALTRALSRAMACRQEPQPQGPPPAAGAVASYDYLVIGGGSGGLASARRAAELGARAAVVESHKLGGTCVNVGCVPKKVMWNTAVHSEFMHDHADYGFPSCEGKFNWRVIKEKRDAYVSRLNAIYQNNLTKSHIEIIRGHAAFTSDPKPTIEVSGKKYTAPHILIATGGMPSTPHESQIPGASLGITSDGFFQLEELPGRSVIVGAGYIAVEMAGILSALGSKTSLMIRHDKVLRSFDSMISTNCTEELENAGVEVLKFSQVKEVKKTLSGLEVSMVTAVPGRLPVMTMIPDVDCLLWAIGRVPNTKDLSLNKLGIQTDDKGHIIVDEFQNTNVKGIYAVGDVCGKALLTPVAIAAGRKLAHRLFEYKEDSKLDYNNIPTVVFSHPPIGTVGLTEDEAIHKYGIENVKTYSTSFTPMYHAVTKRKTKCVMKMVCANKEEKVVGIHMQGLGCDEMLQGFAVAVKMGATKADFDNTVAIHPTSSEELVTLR
Sequence of UniProt Q9BS26 (Q9BS26 whole entry): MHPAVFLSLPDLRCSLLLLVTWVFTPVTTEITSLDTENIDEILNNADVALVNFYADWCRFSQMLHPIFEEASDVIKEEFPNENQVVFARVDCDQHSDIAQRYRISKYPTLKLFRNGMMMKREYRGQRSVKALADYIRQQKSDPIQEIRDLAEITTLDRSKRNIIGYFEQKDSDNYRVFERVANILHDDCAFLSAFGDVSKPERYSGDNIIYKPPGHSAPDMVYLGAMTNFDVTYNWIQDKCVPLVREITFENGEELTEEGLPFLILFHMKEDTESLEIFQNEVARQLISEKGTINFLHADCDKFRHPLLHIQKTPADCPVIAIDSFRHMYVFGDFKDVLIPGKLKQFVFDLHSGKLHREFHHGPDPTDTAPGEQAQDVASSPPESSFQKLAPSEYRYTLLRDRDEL
Sequence of UniProt P40855 (P40855 whole entry, one chain of several): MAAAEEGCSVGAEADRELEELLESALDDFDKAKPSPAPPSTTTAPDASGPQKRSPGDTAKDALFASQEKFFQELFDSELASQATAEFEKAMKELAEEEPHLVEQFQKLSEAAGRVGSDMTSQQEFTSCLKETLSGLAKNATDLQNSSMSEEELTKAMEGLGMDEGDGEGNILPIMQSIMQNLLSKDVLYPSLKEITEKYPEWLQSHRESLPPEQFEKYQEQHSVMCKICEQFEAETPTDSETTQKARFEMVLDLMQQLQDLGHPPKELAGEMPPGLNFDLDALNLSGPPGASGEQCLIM
Sequence of UniProt Q13137 (Q13137 whole entry): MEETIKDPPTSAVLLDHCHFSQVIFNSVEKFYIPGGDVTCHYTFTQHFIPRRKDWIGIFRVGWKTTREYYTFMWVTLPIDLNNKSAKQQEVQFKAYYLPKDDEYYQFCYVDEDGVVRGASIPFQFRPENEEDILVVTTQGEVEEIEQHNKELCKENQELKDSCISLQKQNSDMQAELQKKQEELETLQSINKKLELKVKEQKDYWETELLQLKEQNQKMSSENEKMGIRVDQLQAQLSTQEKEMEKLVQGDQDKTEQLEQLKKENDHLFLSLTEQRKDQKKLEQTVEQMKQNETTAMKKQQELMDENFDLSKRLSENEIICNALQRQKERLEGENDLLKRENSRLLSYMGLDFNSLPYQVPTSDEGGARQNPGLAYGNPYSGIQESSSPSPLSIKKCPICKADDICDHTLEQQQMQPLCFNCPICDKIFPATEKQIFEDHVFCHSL
Sequence of UniProt Q9Y5X3 (Q9Y5X3 whole entry): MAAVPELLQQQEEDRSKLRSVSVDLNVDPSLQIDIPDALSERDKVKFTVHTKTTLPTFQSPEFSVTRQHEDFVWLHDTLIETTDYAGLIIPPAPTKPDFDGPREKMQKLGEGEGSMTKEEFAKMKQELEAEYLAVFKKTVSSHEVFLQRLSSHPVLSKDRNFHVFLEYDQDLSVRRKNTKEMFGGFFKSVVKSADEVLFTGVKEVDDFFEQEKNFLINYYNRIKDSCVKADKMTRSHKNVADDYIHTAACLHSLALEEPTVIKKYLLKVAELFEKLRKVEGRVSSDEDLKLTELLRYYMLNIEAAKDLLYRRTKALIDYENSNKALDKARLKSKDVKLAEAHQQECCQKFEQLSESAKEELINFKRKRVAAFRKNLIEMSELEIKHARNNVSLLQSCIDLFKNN
Sequence of UniProt P12004 (P12004 whole entry): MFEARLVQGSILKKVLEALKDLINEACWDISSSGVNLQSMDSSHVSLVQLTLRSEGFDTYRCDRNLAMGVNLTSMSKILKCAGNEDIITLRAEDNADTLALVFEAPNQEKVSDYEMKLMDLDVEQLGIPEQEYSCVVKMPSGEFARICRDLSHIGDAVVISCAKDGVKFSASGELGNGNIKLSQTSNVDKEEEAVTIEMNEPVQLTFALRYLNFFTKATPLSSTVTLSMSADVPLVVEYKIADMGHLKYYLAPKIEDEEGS
Sequence of UniProt Q53S33 (Q53S33 whole entry): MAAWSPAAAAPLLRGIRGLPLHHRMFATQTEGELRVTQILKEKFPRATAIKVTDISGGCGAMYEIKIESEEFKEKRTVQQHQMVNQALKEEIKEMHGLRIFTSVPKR

Regarding SNAP29 (UniProt O95721), the thermal stability z-score in the test with potassium arsenate was 0.554; with lipoamide (setting [1]), -0.254; in the test with lipoamide (arsenate co-treatment: none), 0.547.
In the same order, the values of GSR (UniProt P00390) are -0.106, 0.558 and 0.347.
In the same order, the values of XPNPEP1 (UniProt Q9NQW7) are -0.738, 1.5 and 0.794.
In the same order, the values of C19ORF43 (UniProt Q9BQ61) are -0.0224, 0.121 and 0.217.
In the case of MCL1 (UniProt Q07820), the values for the thermal stability z-score with potassium arsenate, with lipoamide (setting [1]) and with lipoamide (arsenate co-treatment: none) were 1.27, 0.483 and 0.838, respectively.
In the case of G3V3G9 (UniProt P40855), the figures for the thermal stability z-score with potassium arsenate, with lipoamide (setting [1]) and with lipoamide (arsenate co-treatment: none) were -0.695, -0.319 and -0.13, respectively.
In the same order, the values of CDKAL1 (UniProt Q5VV42) are -0.903, 1.09 and 0.835.
In the same order, the values of ARHGEF10 (UniProt O15013) are 0.964, -0.746 and -0.324.
In the same order, the values of WDFY1 (UniProt Q8IWB7) are -1.85, -0.112 and -0.423.
Regarding COPRS (UniProt Q9NQ92), the results for the thermal stability z-score with potassium arsenate, in the test with lipoamide (setting [1]) and with lipoamide (arsenate co-treatment: none) were -0.822, 0.227 and 0.791, respectively.
As for PCNA (UniProt P12004), the thermal stability z-score with potassium arsenate is 1.56; with lipoamide (setting [1]), 0.353; in the test with lipoamide (arsenate co-treatment: none), -0.0687.
For SNX5 (UniProt Q9Y5X3), the thermal stability z-score with potassium arsenate is -0.458; with lipoamide (setting [1]) it was -0.497; with lipoamide (arsenate co-treatment: none), -0.998.
For CALCOCO2 (UniProt Q13137), the thermal stability z-score with potassium arsenate worked out at 0.743; with lipoamide (setting [1]), 0.172; in the test with lipoamide (arsenate co-treatment: none), 0.108.
On to KCTD5 (UniProt Q9NXV2), for which the thermal stability z-score in the test with potassium arsenate was -1.43; with lipoamide (setting [1]) it was -1.92; with lipoamide (arsenate co-treatment: none), -1.4.
Regarding MTMR6 (UniProt Q9Y217), the thermal stability z-score with potassium arsenate was -0.39; in the test with lipoamide (setting [1]), 0.0538; with lipoamide (arsenate co-treatment: none) it was 0.0997.
With PUDP (UniProt Q08623), the thermal stability z-score is -1.3 in the test with potassium arsenate, 0.292 with lipoamide (setting [1]) and -0.0843 with lipoamide (arsenate co-treatment: none).
In the same order, the values of UHRF1BP1L (UniProt A0JNW5) are -0.53, -0.0289 and -0.329.
Regarding SDAD1 (UniProt Q9NVU7), the thermal stability z-score with potassium arsenate was -0.469; with lipoamide (setting [1]) it was 0.0663; with lipoamide (arsenate co-treatment: none), -0.0856.
In the same order, the values of ARL14EP (UniProt Q8N8R7) are -0.3, -0.0926 and -0.15.
In the same order, the values of BOLA3 (UniProt Q53S33) are 0.0193, -0.103 and -0.245.
For the target IFIT3 (UniProt O14879), the thermal stability z-score with potassium arsenate was -0.0781; with lipoamide (setting [1]), 0.00563; with lipoamide (arsenate co-treatment: none), -0.0242.
Turning to AIDA (UniProt Q96BJ3), the thermal stability z-score with potassium arsenate is -0.0785; with lipoamide (setting [1]), -0.00864; with lipoamide (arsenate co-treatment: none), 0.00569.
As for ERP44 (UniProt Q9BS26), the thermal stability z-score with potassium arsenate was 0.885; with lipoamide (setting [1]), -2.86; with lipoamide (arsenate co-treatment: none), -2.35.
